Test system: HL-60
Assay: Inhibition of [3H]arachidonic acid production by stimulated HL60 cells.
Format: functional, cell-based
Settings: Homo sapiens

SMILES	IC50
CCCCCCCCCCOc1ccc(OCC(=O)COc2ccc(C(=O)O)cc2)cc1	2.8 µM
CCCCC/C=C\C/C=C\C/C=C\C/C=C\CCCC(=O)C(F)(F)F [ARACHIDONYL TRIFLUOROMETHYLKETONE]	29 µM

— ChEMBL document CHEMBL1135894, “Design and synthesis of a novel and potent series of inhibitors of cytosolic phospholipase A(2) based on a 1,3-disubstituted propan-2-one skeleton” (J Med Chem, 2002)
